Data taken from PMC8399565, “Fluorescence Cross-Correlation Spectroscopy Yields True Affinity and Binding Kinetics of Plasmodium Lactate Transport Inhibitors” (Pharmaceuticals, 2021).
“Also recorded” adds a separate entry of the source. Read-outs that look alike come from different tables or passages of the source.

Tests used:
PfFNT G107S-GFP = biological target: T1, PfFNT G107S-GFP (Plasmodium falciparum, UniProt O77389, G107S); experiment: FCCS equilibrium competition binding, PfFNT G107S mutant
T1 construct: The DNA of full-length PfFNT from Plasmodium falciparum 3D7 was cloned as a C-terminal GFP fusion; expressed in transfected cells; intact cells for imaging, LMNG-solubilized membranes for FCCS
Protocol: Figure 4 Affinity determination of BH296, BH267.meta to PfFNT and PfFNT G107S, and equilibrium saturation binding of BH296 and BH267.meta to PfFNT and PfFNT G107S. […] BH267.meta bound to 100% of the GFP-fusions of wildtype PfFNT. […] (c) Membrane preparations containing 10 nM of PfFNT-GFP were incubated with 70 nM BH296-DY647, and associated complexes competed with free compounds BH267.meta and BH296 to assess their Ki values. […] (e) Membrane preparations containing GFP fusions of mutant PfFNT G107S were mixed with 150 nM of the labeled BH267.meta tracer and competed with BH267.meta and BH296.
The Ki values calculated for the interaction of BH296 and BH267.meta to mutant PfFNT G107S confirm the affinities observed for the direct interaction with labeled inhibitors.
FCCS measurements were conducted in 384-well glass-bottom plates (cat. no PS96B-G175, SWISSCI, Switzerland) using an Insight plate reader (Evotec Technologies, Germany) fitted with a U-Apo300 40x water immersion lens, NA 1.15 (Olympus, Japan). The 488 nm laser line of an argon-ion laser and the light of a 633 nm helium–neon laser were used for excitation. Fluorescence fluctuations were recorded for 8 s with 12 repetitions and analyzed afterward using FCS+plus Analyze 1.1P (Evotec technologies, Version 1.2.5g). FCCS analysis was carried out as described previously. Briefly, for measuring the dissociation constant (KD), a titration series of 12 dilutions was prepared, where the concentration of the lysates obtained from HEK cells expressing GFP-fusions of PfFNT WT and G107S was kept constant, and the concentration of the labeled binding partner (BH296-DY647 and BH267.meta-DY647, respectively) was varied. […] All KD and IC50 values, as well as kinetic parameters, were determined from three independently repeated experiments. The figures show one representative measurement; however, the calculated KD, Ki, kon and koff values are presented as an average of the three measurements ± SD. […]

[1] = system: FNT-type lactate transporters of the remaining four human-pathogenic plasmodia; details: cited from earlier work
hsMCT4 = biological target: T2, hsMCT4 (Homo sapiens, UniProt O15427); experiment: Live cell confocal imaging, co-localization with hsMCT4-GFP in HEK cells; type: cell-based; details: 50 nM BH296-DY647, hsMCT4-GFP in HEK cells
T2 construct: expressed in transfected cells
T2 sequence (O15427 1-465): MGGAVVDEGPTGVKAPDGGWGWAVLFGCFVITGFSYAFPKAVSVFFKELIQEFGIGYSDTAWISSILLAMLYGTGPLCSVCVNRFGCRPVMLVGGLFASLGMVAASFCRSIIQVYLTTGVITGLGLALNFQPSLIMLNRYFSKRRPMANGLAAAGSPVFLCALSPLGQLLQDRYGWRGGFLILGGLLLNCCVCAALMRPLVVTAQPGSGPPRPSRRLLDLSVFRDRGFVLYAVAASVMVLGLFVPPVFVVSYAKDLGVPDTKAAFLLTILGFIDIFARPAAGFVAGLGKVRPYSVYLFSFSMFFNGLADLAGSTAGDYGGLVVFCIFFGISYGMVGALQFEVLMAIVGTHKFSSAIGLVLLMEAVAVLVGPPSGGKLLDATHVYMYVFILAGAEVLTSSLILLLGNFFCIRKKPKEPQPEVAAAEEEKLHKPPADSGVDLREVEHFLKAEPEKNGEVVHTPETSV
Protocol: The monocarboxylate transporter hsMCT4 is a human functional homolog of PfFNT, but both proteins show no similarity on the basis of their primary sequence or transport mechanism.
The confocal laser scanning microscopy was performed on an LSM 510 confocal microscope connected to an Axiovert 200M equipped with a C-Apochromat 40×/1.2 W water immersion objective (Carl Zeiss, Germany). The red fluorophore (Dy-647) was excited using a 633 nm helium–neon laser, whereas the green fluorophore (GFP) was excited using a 488 nm argon-ion laser.

T1 sequence (O77389 whole entry G107S, the tested form may be a part): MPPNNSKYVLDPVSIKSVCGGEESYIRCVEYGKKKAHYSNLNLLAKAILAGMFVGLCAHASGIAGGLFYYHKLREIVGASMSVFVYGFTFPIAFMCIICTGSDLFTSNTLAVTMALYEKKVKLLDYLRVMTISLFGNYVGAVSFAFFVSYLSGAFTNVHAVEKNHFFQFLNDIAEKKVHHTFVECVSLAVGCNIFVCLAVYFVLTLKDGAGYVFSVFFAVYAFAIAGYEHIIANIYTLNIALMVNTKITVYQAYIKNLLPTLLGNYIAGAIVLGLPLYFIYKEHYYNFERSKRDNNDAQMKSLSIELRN

SMILES: O=C(/C=C(\O)C(F)(F)C(F)(F)F)c1cccnc1 [BH267.meta]
- Ki (PfFNT G107S-GFP; fluorescent probe BH267.meta-DY647 150 nM, competitor up to 10 µM, read-out: Ki Competitor): 417 ± 16 nM
- concentration blocking FNT-type lactate transporters [1]: sub-micromolar

SMILES: O=C(C=C(O)C(F)(F)C(F)(F)F)c1ccc(O)cc1 [BH296, 4,4,5,5,5-pentafluoro-3-hydroxy-1-(4-hydroxyphenyl)pent-2-en-1-one]
- Ki (PfFNT G107S-GFP): > 10000 nM
- Ki Competitor (PfFNT G107S-GFP; fluorescent probe BH267.meta-DY647 150 nM, competitor up to 10 µM): did not compete; also recorded: does not interfere

SMILES: CCN1/C(=C/C=C/C=C/C2=[N+](CC)c3ccc(S(=O)(=O)O)cc3C2(C)CCCC(=O)NCCOCCOCCOCCOCCC(=O)NCCCOc2ccc(C(=O)/C=C(\O)C(F)(F)C(F)(F)F)cc2)C(C)(C)c2cc(S(=O)(=O)[O-])ccc21 (centres unmarked) [BH296-DY647]
- co-localization on the plasma membrane (hsMCT4): did not show any co-localization
